Laboratory results taken from ChEMBL document CHEMBL1201862, “PubChem BioAssay data set” (2004).
Active and inactive are the calls of the source.

How the values were obtained:
[1] = biological target: T1, Tyrosine-protein phosphatase non-receptor type 22 (Homo sapiens, UniProt Q9Y2R2); experiment: inhibition of lymphoid tyrosine phosphatase LYP – biochemical, pCAP fluorogenic substrate, fluorescence, set 3, SAR follow-up (AID 449727); type: functional
T1 sequence (Q9Y2R2 whole entry): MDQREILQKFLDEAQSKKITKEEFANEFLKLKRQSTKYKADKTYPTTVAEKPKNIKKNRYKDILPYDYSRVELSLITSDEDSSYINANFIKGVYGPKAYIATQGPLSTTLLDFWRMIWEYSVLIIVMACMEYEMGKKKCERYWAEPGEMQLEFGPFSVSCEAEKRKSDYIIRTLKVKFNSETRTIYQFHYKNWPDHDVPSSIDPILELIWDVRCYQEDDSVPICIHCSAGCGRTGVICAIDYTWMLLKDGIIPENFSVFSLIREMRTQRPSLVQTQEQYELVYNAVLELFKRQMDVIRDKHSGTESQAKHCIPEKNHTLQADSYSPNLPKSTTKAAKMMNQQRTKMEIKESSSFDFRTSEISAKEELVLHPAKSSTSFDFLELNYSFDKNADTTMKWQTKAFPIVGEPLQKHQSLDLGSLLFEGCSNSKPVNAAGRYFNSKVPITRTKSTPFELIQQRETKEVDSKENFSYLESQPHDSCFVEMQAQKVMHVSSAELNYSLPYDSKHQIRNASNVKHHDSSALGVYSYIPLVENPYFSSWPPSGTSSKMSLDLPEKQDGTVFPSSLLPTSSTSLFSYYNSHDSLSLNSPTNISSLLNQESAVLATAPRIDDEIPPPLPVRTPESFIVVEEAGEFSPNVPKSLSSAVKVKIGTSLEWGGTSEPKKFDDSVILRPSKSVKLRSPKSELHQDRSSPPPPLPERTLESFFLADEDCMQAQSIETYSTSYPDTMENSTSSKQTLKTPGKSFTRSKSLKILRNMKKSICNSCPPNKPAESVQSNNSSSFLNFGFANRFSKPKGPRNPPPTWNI

[2] = biological target: Tyrosine-protein phosphatase non-receptor type 12 (Homo sapiens, UniProt Q05209); experiment: SAR Selectivity Analysis of small molecule inhibitors of PEST using pCAP in a fluorescence assay. [Related pubchem assays (depositor defined):AID1779, AID1784, AID2135]; type: functional
Chain of Tyrosine-protein phosphatase non-receptor type 12 (Q05209 whole entry): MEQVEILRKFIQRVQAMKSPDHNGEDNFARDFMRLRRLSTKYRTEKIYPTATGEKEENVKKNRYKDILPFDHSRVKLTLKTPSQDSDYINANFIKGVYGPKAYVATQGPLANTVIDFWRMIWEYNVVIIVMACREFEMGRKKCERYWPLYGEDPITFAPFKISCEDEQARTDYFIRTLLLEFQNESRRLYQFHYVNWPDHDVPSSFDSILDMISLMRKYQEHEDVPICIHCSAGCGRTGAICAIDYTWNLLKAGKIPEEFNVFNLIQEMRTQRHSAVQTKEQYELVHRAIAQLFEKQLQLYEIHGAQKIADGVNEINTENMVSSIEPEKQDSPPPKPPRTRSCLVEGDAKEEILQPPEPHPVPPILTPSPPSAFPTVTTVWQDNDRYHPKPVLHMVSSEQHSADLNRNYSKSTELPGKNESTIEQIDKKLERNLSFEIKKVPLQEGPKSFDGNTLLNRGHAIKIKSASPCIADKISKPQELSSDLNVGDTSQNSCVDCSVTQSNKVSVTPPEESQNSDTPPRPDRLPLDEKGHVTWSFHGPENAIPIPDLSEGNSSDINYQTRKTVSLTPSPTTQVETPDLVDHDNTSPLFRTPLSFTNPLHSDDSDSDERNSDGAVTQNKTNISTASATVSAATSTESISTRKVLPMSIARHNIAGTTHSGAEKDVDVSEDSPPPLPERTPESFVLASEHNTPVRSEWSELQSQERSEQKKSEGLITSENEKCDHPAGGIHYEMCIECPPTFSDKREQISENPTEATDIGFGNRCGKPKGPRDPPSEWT

[3] = biological target: T1, Tyrosine-protein phosphatase non-receptor type 22; experiment: SAR LYP1 Fluorescent Assay using OMFP substrate for In Vitro dose response studies - Set 3. [Related pubchem assays (depositor defined):AID1779, AID1784, AID2140, AID2686]; type: functional
[4] = biological target: T1, Tyrosine-protein phosphatase non-receptor type 22; experiment: SAR LYP1 Fluorescent Assay using OMFP substrate for In Vitro dose response studies - Set 2. [Related pubchem assays (depositor defined):AID1779, AID1784, AID2140, AID449726, AID488869]; type: functional
[5] = biological target: T2, Tyrosine-protein phosphatase non-receptor type 7 (Homo sapiens, UniProt P35236); experiment: inhibition of hematopoietic tyrosine phosphatase HePTP – biochemical, set 2, SAR follow-up (AID 449736); type: functional
T2 sequence (P35236 whole entry): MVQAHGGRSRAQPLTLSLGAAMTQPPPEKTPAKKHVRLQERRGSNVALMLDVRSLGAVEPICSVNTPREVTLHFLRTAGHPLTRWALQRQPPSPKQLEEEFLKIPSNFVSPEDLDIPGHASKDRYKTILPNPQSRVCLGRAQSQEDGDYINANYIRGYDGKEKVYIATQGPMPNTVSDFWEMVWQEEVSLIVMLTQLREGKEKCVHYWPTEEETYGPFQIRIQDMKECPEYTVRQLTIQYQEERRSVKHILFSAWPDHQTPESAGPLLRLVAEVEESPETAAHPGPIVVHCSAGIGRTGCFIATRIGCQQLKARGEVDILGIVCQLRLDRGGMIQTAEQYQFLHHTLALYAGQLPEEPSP

[6] = biological target: T1, Tyrosine-protein phosphatase non-receptor type 22; experiment: SAR LYP1 Fluorescent Assay using pCAP substrate for In Vitro dose response studies - Set 2. [Related pubchem assays (depositor defined):AID1779, AID1784, AID2135, AID449727]; type: functional
[7] = biological target: T3, Kappa-type opioid receptor (Homo sapiens, UniProt P41145); experiment: kappa opioid receptor activation potency – imaging, image-based, SAR follow-up (AID 2359); type: functional
T3 sequence (P41145 whole entry): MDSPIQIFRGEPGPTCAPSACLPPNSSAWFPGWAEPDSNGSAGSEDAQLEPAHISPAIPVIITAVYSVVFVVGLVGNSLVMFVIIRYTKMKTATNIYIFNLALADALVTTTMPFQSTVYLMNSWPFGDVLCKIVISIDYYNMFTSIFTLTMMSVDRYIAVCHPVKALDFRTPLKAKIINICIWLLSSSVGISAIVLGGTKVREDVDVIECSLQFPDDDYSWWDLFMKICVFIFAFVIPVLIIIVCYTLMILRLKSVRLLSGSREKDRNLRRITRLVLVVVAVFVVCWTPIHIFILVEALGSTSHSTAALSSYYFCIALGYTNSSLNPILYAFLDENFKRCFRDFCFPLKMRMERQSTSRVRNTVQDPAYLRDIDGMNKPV

Mu-type opioid receptor [8] = biological target: T4, Mu-type opioid receptor (Homo sapiens, UniProt P35372); experiment: mu opioid receptor activators, image-based, SAR follow-up (AID 2352); type: functional
T4 sequence (P35372 whole entry): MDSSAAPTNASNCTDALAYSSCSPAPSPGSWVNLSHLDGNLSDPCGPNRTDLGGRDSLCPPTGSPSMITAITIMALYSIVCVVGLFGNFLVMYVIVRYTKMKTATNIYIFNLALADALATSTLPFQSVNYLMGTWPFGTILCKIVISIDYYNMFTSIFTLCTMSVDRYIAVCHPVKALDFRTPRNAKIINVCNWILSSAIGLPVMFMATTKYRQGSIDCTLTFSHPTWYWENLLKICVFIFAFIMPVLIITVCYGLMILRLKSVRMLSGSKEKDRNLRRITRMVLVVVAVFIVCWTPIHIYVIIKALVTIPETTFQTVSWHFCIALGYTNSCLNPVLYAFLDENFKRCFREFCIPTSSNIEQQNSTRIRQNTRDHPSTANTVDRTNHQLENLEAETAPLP

[9] = biological target: T5, Delta-type opioid receptor (Homo sapiens, UniProt P41143); experiment: HTS Image-Based Screen for Antagonists of the DOR Receptor. [Related pubchem assays (depositor defined):AID1777, AID1785, AID1786, AID2133]; type: functional
T5 sequence (P41143 whole entry): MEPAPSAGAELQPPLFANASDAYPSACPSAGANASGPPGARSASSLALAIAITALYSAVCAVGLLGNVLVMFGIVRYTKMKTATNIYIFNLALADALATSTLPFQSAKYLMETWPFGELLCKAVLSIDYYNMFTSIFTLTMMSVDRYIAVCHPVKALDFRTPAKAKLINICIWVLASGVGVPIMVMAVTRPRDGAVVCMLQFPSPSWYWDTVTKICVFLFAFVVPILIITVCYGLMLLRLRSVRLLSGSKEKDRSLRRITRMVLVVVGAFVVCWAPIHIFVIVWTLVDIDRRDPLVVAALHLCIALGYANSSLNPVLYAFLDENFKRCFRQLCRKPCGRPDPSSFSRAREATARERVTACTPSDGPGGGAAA

Mu-type opioid receptor [10] = biological target: T4, Mu-type opioid receptor; experiment: HTS Image-Based Screen for Agonists of the MOR Receptor. [Related pubchem assays (depositor defined):AID1777, AID1785, AID1786, AID2133]; type: functional
[11] = biological target: T3, Kappa-type opioid receptor; type: functional
[12] = biological target: T3, Kappa-type opioid receptor; experiment: kappa opioid receptor blockers, image-based, SAR follow-up (AID 2348); type: functional
Mu-type opioid receptor [13] = biological target: T4, Mu-type opioid receptor; experiment: mu opioid receptor blockers – image-based, SAR follow-up (AID 2420); type: functional;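 also: compounds added before stimulation of receptor with agonist DAMGO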
[14] = biological target: T5, Delta-type opioid receptor; experiment: delta opioid receptor blockers – image-based, SAR follow-up (AID 2357); type: functional
[15] = biological target: T3, Kappa-type opioid receptor; experiment: SAR analysis of small molecule agonists of the kappa opioid receptor via a luminescent beta-arrestin assay. [Related pubchem assays (depositor defined):AID1777, AID1786, AID1966, AID2133, AID2136, AID2348, AID2352, AID2357, AID2359, AID2370, AID2420, AID2478, AID2491, AID2492, AID2493, AID2497, AID2498, AID2500, AID449737, AID488822, AID488842]; type: functional
[16] = biological target: T3, Kappa-type opioid receptor; type: functional; remark: listed apart in the source
[17] = biological target: T5, Delta-type opioid receptor; experiment: DOR agonists, SAR follow-up, image-based (AID 2370); type: functional
[18] = biological target: T5, Delta-type opioid receptor; experiment: HTS Image-Based Screen for Agonists of the DOR Receptor. [Related pubchem assays (depositor defined):AID1777, AID1786, AID2133]; type: functional
[19] = biological target: Peroxisome proliferator-activated receptor gamma/Nuclear receptor coactivator 2 (Homo sapiens, UniProt P37231); experiment: (§1) TR-FRET dose response biochemical High Throughput Screening assay for agonists of the steroid receptor coactivator 2 (SRC-2) recruitment by the peroxisome proliferator-activated receptor gamma (PPAR gamma): non-selective agonists. [Related pubchem assays: 1297, 1032 ]; type: functional
Chain of Peroxisome proliferator-activated receptor gamma/Nuclear receptor coactivator 2 (P37231 whole entry): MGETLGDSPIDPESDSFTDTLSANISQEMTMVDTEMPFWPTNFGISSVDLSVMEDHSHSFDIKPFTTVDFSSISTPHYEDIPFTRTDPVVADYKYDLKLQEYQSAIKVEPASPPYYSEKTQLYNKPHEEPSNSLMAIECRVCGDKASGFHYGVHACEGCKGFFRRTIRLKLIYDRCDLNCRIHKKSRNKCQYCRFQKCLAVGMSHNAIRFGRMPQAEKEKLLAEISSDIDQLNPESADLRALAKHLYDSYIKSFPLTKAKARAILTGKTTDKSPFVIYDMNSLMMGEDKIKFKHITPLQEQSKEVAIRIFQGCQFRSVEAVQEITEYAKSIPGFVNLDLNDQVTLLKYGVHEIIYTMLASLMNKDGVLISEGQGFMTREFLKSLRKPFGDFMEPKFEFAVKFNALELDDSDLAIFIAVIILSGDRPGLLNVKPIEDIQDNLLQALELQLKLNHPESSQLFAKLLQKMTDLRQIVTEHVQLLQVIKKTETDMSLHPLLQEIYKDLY
Chain of Peroxisome proliferator-activated receptor gamma/Nuclear receptor coactivator 2 (Q15596 whole entry, further chain): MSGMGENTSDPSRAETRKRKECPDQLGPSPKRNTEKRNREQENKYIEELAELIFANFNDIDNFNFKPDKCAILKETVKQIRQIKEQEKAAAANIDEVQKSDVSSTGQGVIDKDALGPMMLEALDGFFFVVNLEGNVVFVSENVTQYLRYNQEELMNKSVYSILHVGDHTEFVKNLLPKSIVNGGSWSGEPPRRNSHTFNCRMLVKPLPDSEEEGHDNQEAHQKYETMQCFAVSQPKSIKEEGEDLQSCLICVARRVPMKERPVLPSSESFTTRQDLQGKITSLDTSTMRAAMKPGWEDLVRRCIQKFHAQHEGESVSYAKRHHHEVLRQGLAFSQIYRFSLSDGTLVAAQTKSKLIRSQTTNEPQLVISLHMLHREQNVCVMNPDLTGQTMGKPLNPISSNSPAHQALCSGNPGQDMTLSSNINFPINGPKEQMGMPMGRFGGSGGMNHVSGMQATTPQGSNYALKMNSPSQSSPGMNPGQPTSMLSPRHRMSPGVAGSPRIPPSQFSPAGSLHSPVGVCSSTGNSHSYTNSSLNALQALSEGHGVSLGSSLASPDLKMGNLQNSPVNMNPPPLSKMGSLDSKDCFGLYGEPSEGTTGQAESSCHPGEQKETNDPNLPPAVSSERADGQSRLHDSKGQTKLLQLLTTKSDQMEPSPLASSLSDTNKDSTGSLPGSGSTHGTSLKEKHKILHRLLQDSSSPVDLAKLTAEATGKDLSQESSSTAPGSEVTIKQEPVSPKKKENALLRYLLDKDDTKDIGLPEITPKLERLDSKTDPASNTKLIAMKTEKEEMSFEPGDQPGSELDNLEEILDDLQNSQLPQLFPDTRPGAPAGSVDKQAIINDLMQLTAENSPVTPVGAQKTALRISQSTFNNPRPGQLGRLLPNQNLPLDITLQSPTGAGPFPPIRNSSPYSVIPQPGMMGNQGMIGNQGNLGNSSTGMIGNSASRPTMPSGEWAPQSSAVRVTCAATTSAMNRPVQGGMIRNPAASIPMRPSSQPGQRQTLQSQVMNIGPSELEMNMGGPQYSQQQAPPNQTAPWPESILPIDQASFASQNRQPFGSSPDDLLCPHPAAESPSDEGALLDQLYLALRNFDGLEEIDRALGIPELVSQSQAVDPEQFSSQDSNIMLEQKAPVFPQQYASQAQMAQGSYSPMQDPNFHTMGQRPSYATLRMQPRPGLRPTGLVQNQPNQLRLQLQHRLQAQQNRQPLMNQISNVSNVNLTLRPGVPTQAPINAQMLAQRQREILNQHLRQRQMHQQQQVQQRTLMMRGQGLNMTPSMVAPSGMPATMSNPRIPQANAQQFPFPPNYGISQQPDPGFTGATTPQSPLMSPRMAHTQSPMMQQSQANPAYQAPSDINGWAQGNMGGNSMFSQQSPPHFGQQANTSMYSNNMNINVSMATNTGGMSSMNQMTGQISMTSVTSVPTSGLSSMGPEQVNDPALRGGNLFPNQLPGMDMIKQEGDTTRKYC

[20] = biological target: Peroxisome proliferator-activated receptor gamma/Nuclear receptor coactivator 3 (Homo sapiens, UniProt P37231); experiment: as §1, with “3 (SRC-3)” for “2 (SRC-2)”, “1301 (Confirmation screen.), 1048 (Primary screen.)]” for “1297, 1032 ]”; type: functional
[21] = biological target: Peroxisome proliferator-activated receptor gamma/Nuclear receptor coactivator 1 (Homo sapiens, UniProt P37231); experiment: as §1, with “1 (SRC-1)” for “2 (SRC-2)”, “assays (depositor defined):AID1300, AID1808, AID504735, AID631]” for “assays: 1297, 1032 ]”; type: protein assay

For O=C(O)COc1ccc(NC(=O)c2ccco2)cc1, the IC50 [1] was > 100 µM (inactive), the IC50 [2] was > 100 µM (inactive) and the IC50 [3] was > 100 µM (inactive). For the same molecule, the IC50 [4] was > 100 µM (inactive), the IC50 [5] was > 100 µM (inactive) and the IC50 [6] was > 100 µM (inactive).

With Cc1cccc(C)c1NC(=O)C1(N(Cc2ccco2)C(=O)c2ccccn2)CCCC1 the EC50 [7] was 1.11 µM (active), the EC50 (Mu-type opioid receptor [8]) was > 32 µM (inactive) and the IC50 [9] was > 32 µM (inactive). The EC50 (Mu-type opioid receptor [10]) was > 32 µM (inactive), the EC50 [11] was 1.94 µM and the IC50 [12] was > 32 µM (inactive). The IC50 (Mu-type opioid receptor [13]) was > 32 µM (inactive), the IC50 [14] was > 32 µM (inactive) and the EC50 [15] was 4.05 µM (active). The EC50 [16] was 4.19 µM, the EC50 [17] was > 32 µM (inactive) and the EC50 [18] was > 32 µM (inactive).

In the case of C#CCn1/c(=N/C(=O)c2sc3ccccc3c2Cl)sc2cc(S(N)(=O)=O)ccc21, the EC50 [19] is reported as 18.7 µM (not active), the EC50 [20] is reported as > 79.4 µM (not active) and the EC50 [21] is reported as 16.2 µM (inactive).
